Results reported in patent US20240360159A1, “NOVEL APPLICATIONS FOR OXAZABOROLIDINES AND NEW METHODS OF MANUFACTURE THEREOF” (Pathway Intermediates Limited, priority 2021, published 2024).
Marks after values point to notes of the source that are not given here.

Legend:
cecal microbiome = assay: Cecal bacterial microbiome α-diversity by 16S sequencing (Example 5); assay type: in vivo, broiler chickens; conditions: first week; genus level; compared to the basal control; p=0.0184 (Compound 1) and 0.0393 (Compound 2), two-way ANOVA; 0.1% in diet
Description: (§1) 1200 birds, 1-day old broiler (Ross 308; mixed sex) were treated over 32 days. 4 dietary groups were assessed with 6 replicates per diet; 50 birds per pen. The four Dietary groups consisted of (1) a control basal diet and (2) feed supplemented with a feed additive according to an embodiment of the present invention (0.1% 2-butyl-3,4 dimethyl-5-phenyl 1,3,2-oxazaborolidine-compound 2), (3) feed supplemented with a feed additive according to another embodiment of the present invention (0.1% 3,4-dimethyl-2-5-diphenyl-1,3,2-oxazaborolidine-compound 1) and (4) feed supplemented with the known antibiotic, ampicillin (0.1%).
Microbiome: Cecal samples were harvested at three time points (week 1, week 3 and week 5). Six replicates were harvested per dietary group. Total DNA was purified and the bacterial microbiome was analysed by 16S sequencing.
Plots display the smallest and largest value as the whiskers, with the box comprising the 25th percentile, median and 75th percentile.

[1] = tested on: broiler (Ross 308; mixed sex); assay: Growth performance in broilers, feed additives vs ampicillin (Example 5); assay type: in vivo; conditions: for ADFI / ADG / BW / FCR / Mortality / Survivability: 0.1% in feed
Description: The pure oxazaborolidines prepared by the method of Example 1 was investigated to assess its potential as a growth promotor in poultry.
as §1
(§2) The feeding programme followed a typical feeding program on a farm (3 phases: starter; grower; finisher) with the feed additives added to the basal diet with top dressing.
(§3) The following measurements were taken:
Growth Performance: Body weight (BW); Weight gain (Average Daily Gain—ADG); Feed intake (Average Daily Feed Intake—ADFI); FCR (food conversion ratio—feed input divided by feed output); Mortality Production Index.

[2] = tested on: broiler (Ross 308; mixed sex); assay: Growth performance in broilers, feed additive (Example 4); assay type: in vivo; conditions: 0.055% in feed
Description: The pure oxazaborolidine compound 5 (R)-(+)-2-Methyl-CBS-oxazaborolidine prepared according to Example 1 was investigated to assess its potential as a growth promoter in poultry.
240 birds, 1-day old broiler (Ross 308; mixed sex) were treated over 32 days. Two dietary groups were given six replicates per diet; […]. The two treatments consisted of (1) a control basal diet and (2) feed supplemented with a feed additive according to an embodiment of the present invention (0.055% (R)-(+)-2-Methyl-CBS-oxazaborolidine).
as §2, §3
Growth Performance: Body weight (BW); Weight gain (Average Daily Gain-ADG); Feed intake (Average Daily Feed Intake—ADFI); FCR (food conversion ratio-feed input divided by feed output).

[3] = 0.1% in diet, compared to the basal diet Control

Compound: C[C@H]1[C@@H](c2ccccc2)OB(c2ccccc2)N1C [Compound 1, 3,4-dimethyl-2-5-diphenyl-1,3,2-oxazaborolidine]
- α-diversity of the cecal microbiome (cecal microbiome): significantly increased
- decrease of overall FCR [1, 3]: 0.59%
- ADFI ([1]; Grower (8-21 d)): 72.7^C g
- ADG ([1]; Grower (8-21 d)): 51.5^C g
- BW ([1]; Grower (8-21 d)): 892.8^C g
- FCR ([1]; Grower (8-21 d)): 1.46^ab
- Mortality ([1]; Grower (8-21 d)): 0.37%
- ADFI ([1]; Grower (22-32 d)): 133.5^C g
- ADG ([1]; Grower (22-32 d)): 70.6^C g
- BW ([1]; Grower (22-32 d)): 1669.4^C g
- FCR ([1]; Grower (22-32 d)): 2.08
- Mortality ([1]; Grower (22-32 d)): 0.40%
- ADFI ([1]; Overall (1-32 d)): 82.0^C g
- ADG ([1]; Overall (1-32 d)): 50.8^C g
- FCR ([1]; Overall (1-32 d)): 1.69^x
- Survivability ([1]; Overall (1-32 d)): 97.9%
- ADFI ([1]; Starter (1-7 d)): 19.5^B g
- ADG ([1]; Starter (1-7 d)): 18.2^C g
- BW ([1]; Starter (1-7 d)): 172.4^C g
- FCR ([1]; Starter (1-7 d)): 1.07^A
- Mortality ([1]; Starter (1-7 d)): 1.00%

Compound: CB1OC(c2ccccc2)(c2ccccc2)[C@H]2CCCN12 [Compound 5, (R)-(+)-2-Methyl-CBS-oxazaborolidine]
- ADFI ([2]; Finisher (22-32 d)): 147.8 g
- ADG ([2]; Finisher (22-32 d)): 90.1 g
- BW ([2]; Finisher (22-32 d)): 2078.6 g
- FCR ([2]; Finisher (22-32 d)): 1.64
- ADFI ([2]; Grower (8-21 d)): 68.3 g
- ADG ([2]; Grower (8-21 d)): 48.3 g
- BW ([2]; Grower (8-21 d)): 816.9 g
- FCR ([2]; Grower (8-21 d)): 1.41
- ADFI ([2]; Overall (1-32 d)): 89.5 g
- ADG ([2]; Overall (1-32 d)): 58.2 g
- FCR ([2]; Overall (1-32 d)): 1.52
- ADFI ([2]; Starter (1-7 d)): 15.5 g
- ADG ([2]; Starter (1-7 d)): 14.2 g
- BW ([2]; Starter (1-7 d)): 140.7 g
- FCR ([2]; Starter (1-7 d)): 1.08

Compound: CCCCB1OC(c2ccccc2)C(C)N1C (stereo not drawn) [Compound 2, 2-butyl-3,4 dimethyl-5-phenyl 1,3,2-oxazaborolidine]
- α-diversity of the cecal microbiome (cecal microbiome): significantly increased
- decrease of overall FCR [1, 3]: 1.76%
- increase of overall ADFI [1, 3]: 4.6%
- increase of overall ADG [1, 3]: 5.7%
- ADFI ([1]; Grower (8-21 d)): 80.7^B g
- ADG ([1]; Grower (8-21 d)): 58.6^B g
- BW ([1]; Grower (8-21 d)): 1002.2^B g
- FCR ([1]; Grower (8-21 d)): 1.42^c
- Mortality ([1]; Grower (8-21 d)): 1.12%
- ADFI ([1]; Grower (22-32 d)): 144.0^B g
- ADG ([1]; Grower (22-32 d)): 76.1^B g
- BW ([1]; Grower (22-32 d)): 1839.0^B g
- FCR ([1]; Grower (22-32 d)): 2.09
- Mortality ([1]; Grower (22-32 d)): 0.42%
- ADFI ([1]; Overall (1-32 d)): 89.3^B g
- ADG ([1]; Overall (1-32 d)): 56.1^B g
- FCR ([1]; Overall (1-32 d)): 1.67^xy
- Survivability ([1]; Overall (1-32 d)): 96.7%
- ADFI ([1]; Starter (1-7 d)): 20.4^B g
- ADG ([1]; Starter (1-7 d)): 19.6^B g
- BW ([1]; Starter (1-7 d)): 182.0^B g
- FCR ([1]; Starter (1-7 d)): 1.04^B
- Mortality ([1]; Starter (1-7 d)): 1.33%
- increase in body weight gain ([1]; finisher phase, 0.1% in diet, compared to the basal diet Control): 5.7%
- increase in body weight gain ([1]; grower phase, 0.1% in diet, compared to the basal diet Control): 8.7%
- increase in body weight gain ([1]; starter phase, 0.1% in diet, compared to the basal diet Control): 4.5%

Compound: CC1(C)S[C@@H]2[C@H](NC(=O)[C@H](N)c3ccccc3)C(=O)N2[C@H]1C(=O)O [ATB, ampicillin, reference compound]
- ADFI ([1]; Grower (8-21 d)): 85.9^A g
- ADG ([1]; Grower (8-21 d)): 62.6^A g
- BW ([1]; Grower (8-21 d)): 1074.6^A g
- FCR ([1]; Grower (8-21 d)): 1.42^bc
- Mortality ([1]; Grower (8-21 d)): 1.53%
- ADFI ([1]; Grower (22-32 d)): 155.9^A g
- ADG ([1]; Grower (22-32 d)): 83.0^A g
- BW ([1]; Grower (22-32 d)): 1987.4^A g
- FCR ([1]; Grower (22-32 d)): 2.06
- Mortality ([1]; Grower (22-32 d)): 0.00%
- ADFI ([1]; Overall (1-32 d)): 96.0^A g
- ADG ([1]; Overall (1-32 d)): 60.7^A g
- FCR ([1]; Overall (1-32 d)): 1.66^y
- Survivability ([1]; Overall (1-32 d)): 95.4%
- ADFI ([1]; Starter (1-7 d)): 21.9^A g
- ADG ([1]; Starter (1-7 d)): 22.0^A g
- BW ([1]; Starter (1-7 d)): 199.1^A g
- FCR ([1]; Starter (1-7 d)): 0.99^C
- Mortality ([1]; Starter (1-7 d)): 2.33%
